Source: US20240173339A1, “CANNABINOID FORMULATION FOR MANAGEMENT OF DEPRESSION, ANXIETY AND PTSD, AND CANNABINOID FORMULATION AS A SLEEP AID” (Zyus Life Sciences Inc., priority 2021, published 2024)
Several values for one entry are separate records, joined by “and”; a condition that tells them apart may be missing. Equal values may be shown once. Read-outs that look alike come from different tables or passages of the source.

Columns and labels:
[1] = in vivo; cited from earlier work
rodents [2] = conditions: cited from earlier work
CRS mice [3] = experiment: Forced Swim Test (FST) in CRS mice; assay type: in vivo, BALB/c mice; conditions: CBC 20 mg/kg; for anti-depressive effect (reduction of immobility time and greater movement distance in FST): CBD 10 mg/kg, CBD+CBC 10 and 20 mg/kg
Protocol: (§1) D0-D14: Development of Depression Model by Chronic Restraint Stimulation (CRS) 1 hour per day.
(§2) D15: Treatment of Control and CRS mice (i.p injection of Cannabinoids or Vehicle).
D19: Forced swim test (FST).
(§3) Mouse Species. Adult male BALB/c mice were purchased from Charles River Laboratories.
(§4) Distress Model. Adult male BALB/c mice weighing 20-30 g were used for these experiments. Total 160 animals=10 animals/group×8 treatment groups×2 replicates. The mice groups were as following: • 1. Stress Group: Chronic Restraint Stimulation (CRS): N=80 mice • 2. Control Group: No distress […] CRS: N=80 mice
(§5) Group 2—Treatment with CBD (10 mg/kg)
(§6) Group 3—Treatment with CBC (20 mg/kg)
(§7) Group 4—Co-Treatment CBD (10 mg/kg)+CBC (20 mg/kg)
(§8) • Forced Swim Test (FST) • Elevated Plus Maze (EPM) • Open-Field Test (OFT) • Tail Suspension Test (TST)

[4] = cited from earlier work
CRS mice [5] = experiment: Elevated Plus Maze (EPM) in chronic restraint stress mouse model; assay type: in vivo, BALB/c mice; conditions: i.p., CBD 10 mg/kg, CBC 20 mg/kg, or both
Protocol: as §1, §2
D16: Elevated plus maze test (EPM) (Replicate 1).
D17: Elevated plus maze test (EPM) (Replicate 2).
as §3, §4, §5, §6, §7, §8

rats = conditions: cited from earlier work
CB2 receptors = CB2 receptors (Homo sapiens, UniProt P34972); conditions: read-out: affinity (Ki) for CB2 receptors; cited from earlier work
CB1 receptors = CB1 receptors (Homo sapiens, UniProt P21554); conditions: cited from earlier work
rodents [6] = conditions: in vivo; cited from earlier work

Sequence of CB1 receptors (P21554 whole entry): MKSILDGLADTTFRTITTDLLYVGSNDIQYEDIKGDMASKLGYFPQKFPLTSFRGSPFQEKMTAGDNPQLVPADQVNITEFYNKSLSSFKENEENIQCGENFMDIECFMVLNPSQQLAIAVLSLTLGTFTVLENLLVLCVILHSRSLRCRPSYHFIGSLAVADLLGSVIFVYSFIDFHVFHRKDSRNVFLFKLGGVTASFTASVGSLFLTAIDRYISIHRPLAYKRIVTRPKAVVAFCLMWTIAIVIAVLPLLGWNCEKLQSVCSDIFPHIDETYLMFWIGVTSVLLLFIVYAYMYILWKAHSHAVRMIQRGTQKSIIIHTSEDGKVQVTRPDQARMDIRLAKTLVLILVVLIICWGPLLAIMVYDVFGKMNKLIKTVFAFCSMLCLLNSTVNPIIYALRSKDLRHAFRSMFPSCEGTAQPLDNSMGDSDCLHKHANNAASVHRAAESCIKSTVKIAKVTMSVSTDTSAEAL
Sequence of CB2 receptors (P34972 whole entry): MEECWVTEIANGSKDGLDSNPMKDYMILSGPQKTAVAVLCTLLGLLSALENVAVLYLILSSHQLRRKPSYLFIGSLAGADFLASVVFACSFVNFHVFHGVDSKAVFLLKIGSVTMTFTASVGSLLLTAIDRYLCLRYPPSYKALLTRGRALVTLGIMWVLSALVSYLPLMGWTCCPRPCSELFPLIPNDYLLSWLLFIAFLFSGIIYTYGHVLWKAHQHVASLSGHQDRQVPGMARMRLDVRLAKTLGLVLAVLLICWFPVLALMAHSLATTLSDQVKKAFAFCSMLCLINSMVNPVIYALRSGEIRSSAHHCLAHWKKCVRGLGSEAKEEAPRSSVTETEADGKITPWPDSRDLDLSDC

| SMILES | dose causing decreased locomotor activity [1] | change on TST (rodents [2]; at any dose) | anti-depressive effect (reduction of immobility time and greater movement distance in FST) (CRS mice [3]) | anti-anxiety effect ([4]; high dose (100 mg/kg)) | anti-anxiety effect ([4]; low dose (10 mg/kg)) | mobility in Elevated Plus Maze (EPM) (CRS mice [5]) | dose showing anti-inflammatory and immunomodulatory effects (rats) [mg/kg] | dose with significant antidepressant effect on TST (rodents [2]; in vivo) | FST immobility compared to Vehicle (CRS mice [3]; CBD+CBC 10+20 mg/kg) | Ki (CB2 receptors) [nM] | concentration at which it binds to CB1 receptors (CB1 receptors) | dose with significant antidepressant effect on FST (rodents [6]) [mg/kg] |
| --- | --- | --- | --- | --- | --- | --- | --- | --- | --- | --- | --- | --- |
| C=C(C)[C@@H]1CCC(C)=C[C@H]1c1c(O)cc(CCCCC)cc1O [CBD, cannabidiol, reference compound] | 200 mg/kg | did not cause a significant change | significant anti-depressive effect | failed | effective | significantly higher mobility | 5 to 20 |  |  |  |  |  |
| CCCCCc1cc(O)c2c(c1)OC(C)(CCC=C(C)C)C=C2 (stereo not drawn) [CBC, cannabichromene] | 80 mg/kg and 100 mg/kg |  | significant anti-depressive effect |  |  | significantly higher mobility |  | 40 mg/kg and 80 mg/kg | marked reduction of immobility | ~100 | higher than 1 micromolar | 20 |
